The nature of one data set: pKa of the dyes A-OH. Format: physicochemical. The text has this: The compounds of the formula A--O--B can be used as substrates for the detection and the determination of hydrolases. The dye A--OH, which is liberated on cleavage, has appreciable advantages over those of the state of the art. […] This means that even in the pH range below 7 there is compared with p-nitrophenol, a considerably higher extinction at the same molarity, so that the new substrates prepared from these dyes can therefore be measured with considerably greater sensitivity.

Data set [1] can be described thus: Extinction coefficients and absorption maxima of dyes at different pH values. It counts as physicochemical.
The next data set concerns β-glucosidase. Nature of the data set: Determination of β-glucosidase activity in a urine sample. Format: biochemical, human. Conditions: for Absorbance Difference/min delta A/min: T = 25° C. From the text:
The determination of β-glucosidase activity in human urine has hitherto not been possible with the usual assays because of their limited sensitivity.

The next data set has as its system IgE. Put plainly: Determination of IgE with a state of the art enzyme immunoassay. Conditions: same incubation periods; for absorbance change: measuring wavelength 405 nm, same sample. As to the method: A substantial increase in sensitivity could be achieved using the new substrates in an enzyme immunoassay of the state of the art. In this assay the IgE concentration is determined, as a measure of an allergy by means of the indirect antibody technique. With the same incubation periods for the different substrates, an approximately 4.3-fold higher absorbance for resorufin-β-galactoside (compound S6) and an approximately 1.7-fold higher absorbance for 3-hydroxy-2-nitropyridine-β-galacto-side was measured than for the commercially available o-nitrophenyl-β-galactoside.

The next data set relates to α-amylase. Put plainly: Determination of α-amylase activity in a urine sample without auxiliary enzyme α-glucosidase. Format: biochemical. Conditions: for absorbance change, fold greater than with the nitrophenyl derivative / delta A/min: urine sample; for delta A/min: without auxiliary enzyme α-glucosidase. As to the method: For determination of α-amylase, the measured extinction changes were compared for the following new substrates: 2H-7-O-(α-D-maltotriosyl)-4-methyl-8-nitrobenzopyran-2-one (compound S10), the corresponding maltotetraosyl compound (compound S11) as well as o-nitrophenyl α-maltotrioside.
585 mg of NaCl and 200 mg of compound S10 were dissolved in 100 ml of M/15 phosphate buffer, pH 6.0. 20 μl of urine were pipetted into 1 ml of this solution which was thoroughly mixed. The change in absorbance at 365 nm was continuously recorded in a photometer with a pen recorder attached. The change in absorbance per miute (delta A/min) was calculated from the recording on the pen recorder, and the enzyme activity (U/L) was calculated using the following formula: [formula] 1.02=assay volume including the sample, in ml 0.02=sample volume in ml

Another data set addresses T1, acid phosphatase (Homo sapiens, UniProt P15309).
T1 construct: from tissue; host or cells: seminal plasma, diluted 1:101
T1 sequence (P15309 33-386): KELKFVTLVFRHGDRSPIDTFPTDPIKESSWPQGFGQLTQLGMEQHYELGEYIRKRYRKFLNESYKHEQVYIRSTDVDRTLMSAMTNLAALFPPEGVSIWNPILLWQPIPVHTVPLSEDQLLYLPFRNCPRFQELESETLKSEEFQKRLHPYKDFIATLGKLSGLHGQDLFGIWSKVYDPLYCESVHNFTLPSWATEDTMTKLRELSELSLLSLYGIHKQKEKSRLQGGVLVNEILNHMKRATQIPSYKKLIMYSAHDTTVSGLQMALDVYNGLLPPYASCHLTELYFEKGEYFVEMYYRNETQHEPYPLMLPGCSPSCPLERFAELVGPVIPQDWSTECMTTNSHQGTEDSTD
Put plainly: Kinetic determination of acid phosphatase in seminal plasma. It counts as biochemical. As to the method: The activity of acid phosphatase could be kinetically determined substantially more sensitively with 2H-7-O-4-methyl-8-nitrobenzopyran-2-one phosphate (compound S13) than with nitrophenyl phosphate. The determination was carried out in seminal plasma, diluted 1:101 using both substrates. 0.01 ml of diluted sample was added to 1 ml of a buffered substrate solution, pH 4.8 and the extinction changes kinetically recorded at 405 or 365 nm.

Molecules are shown by their SMILES. Where two headings read alike, the source gives them in different places.

Consider 18 compounds from US4716222A, “Substrates for hydrolases” (Hoechst Aktiengesellschaft, priority 1984, dated 1987).

As a reminder, the pKa is the negative logarithm of the acid dissociation constant. Low values mean a group that gives up its proton readily, high ones a group that holds its proton tightly.

Take `O=[N+]([O-])c1nc(Cl)ccc1O` [3-Hydroxy-2-nitro-6-chloropyridine]: the pKa in the data set “pKa of the dyes A-OH” is recorded as 3.9. In addition, the Extinction coefficient in data set [1] (pH 4.0, 365 nm) was 7.84 1·mol^-1·cm^-1·10^3; in data set [1] (pH 5.0, 365 nm) it was 11.87 1·mol^-1·cm^-1·10^3; in data set [1] (pH 6.0, 365 nm), 12.9 1·mol^-1·cm^-1·10^3; in data set [1] (pH 7.1, 365 nm) it was 13.2 1·mol^-1·cm^-1·10^3; in data set [1] (pH 10, 365 nm), 13.2 1·mol^-1·cm^-1·10^3.
The compound `O=[N+]([O-])c1ncccc1O` [3-Hydroxy-2-nitropyridine] registered a pKa in “pKa of the dyes A-OH” of 5.1. Further, the Extinction coefficient in data set [1] (pH 4.0, 405 nm) is given as 0.50 1·mol^-1·cm^-1·10^3; in data set [1] (pH 5.0, 405 nm), 2.32 1·mol^-1·cm^-1·10^3; in data set [1] (pH 6.0, 405 nm) it was 5.09 1·mol^-1·cm^-1·10^3; in data set [1] (pH 7.1, 405 nm), 5.80 1·mol^-1·cm^-1·10^3; in data set [1] (pH 10, 405 nm), 5.90 1·mol^-1·cm^-1·10^3.
`O=[N+]([O-])c1ccnc(Cl)c1O` [3-Hydroxy-4-nitro-2-chloropyridine] gave a pKa in the data set “pKa of the dyes A-OH” of 3.1. The Extinction coefficient in data set [1] (pH 4.0, 405 nm) is reported as 4.93 1·mol^-1·cm^-1·10^3; in data set [1] (pH 5.0, 405 nm) it was 5.34 1·mol^-1·cm^-1·10^3; in data set [1] (pH 6.0, 405 nm), 5.40 1·mol^-1·cm^-1·10^3; in data set [1] (pH 7.1, 405 nm), 5.48 1·mol^-1·cm^-1·10^3; in data set [1] (pH 10, 405 nm), 5.4 1·mol^-1·cm^-1·10^3.
`Cc1cc(=O)oc2c([N+](=O)[O-])c(O)ccc12` [4-Methyl-8-nitrobenzopyran-2-one, 2H-7-hydroxy-4-methyl-8-nitrobenzopyran-2-one]: the pKa in “pKa of the dyes A-OH” was 4.45.
Turning to `O=c1oc2cc(O)ccc2cc1[N+](=O)[O-]` [7-hydroxy-3-nitrocoumarin], the absorption maximum in data set [1] (pH<6) was determined as 390 nm; in data set [1] (pH>8), 450 nm.
Take `O=c1ccc2nc3ccc(O)cc3oc-2c1` [Resorufin, 3H-7-hydroxyphenoxazin-3-one]: the Extinction coefficient is reported as 1.00 1·mol^-1·cm^-1·10^3 in data set [1] (pH 4.0, 574 nm, mercury lamp photometer, calculated); 0.75 1·mol^-1·cm^-1·10^3 in data set [1] (pH 4.0, 578 nm, variable wavelength photometer); 7.4 1·mol^-1·cm^-1·10^3 in data set [1] (pH 5.0, 574 nm, mercury lamp photometer, calculated); 5.7 1·mol^-1·cm^-1·10^3 in data set [1] (pH 5.0, 578 nm, variable wavelength photometer); 29.64 1·mol^-1·cm^-1·10^3 in data set [1] (pH 6.0, 574 nm, mercury lamp photometer, calculated); 22.80 1·mol^-1·cm^-1·10^3 in data set [1] (pH 6.0, 578 nm, variable wavelength photometer). Further, the Extinction coefficient in data set [1] (pH 7.1, 574 nm, mercury lamp photometer) is 49.87 1·mol^-1·cm^-1·10^3; in data set [1] (pH 7.1, 578 nm, variable wavelength photometer), 39.6 1·mol^-1·cm^-1·10^3; in data set [1] (pH 10, 574 nm, mercury lamp photometer) it was 55.42 1·mol^-1·cm^-1·10^3; in data set [1] (pH 10, 578 nm, variable wavelength photometer), 41.000 1·mol^-1·cm^-1·10^3.
`N#Cc1c2ccc(=O)cc-2oc2cc(O)ccc12` [compound C1, 3H-7-Hydroxy-9-cyanoxanthen-3-one] came in with a pKa in “pKa of the dyes A-OH” of 5.55. Moreover, in data set [1], the absorption maximum came to 578 nm. In data set [1] (578 nm and pH 7.1), the molar extinction coefficient is given as 64,420 1.mol^-1.cm^-1.
As to `O=[N+]([O-])c1ncccc1O[C@@H]1O[C@H](CO)[C@@H](O)[C@H](O)[C@H]1O` [compound S5, 3-O-(β-D-Glucopyranosyl)-2-nitropyridine], in the data set on β-glucosidase, the “fold larger absorbance change per minute than with p-nitrophenyl β-D-glucopyranoside” value is “approximately 7 fold” and the “Absorbance Difference/min delta A/min” value is 0,332 A/min.
With `O=[N+]([O-])c1ncccc1O[C@@H]1O[C@H](CO)[C@H](O)[C@H](O)[C@H]1O` [compound S7, 3-O-(β-D-Galactopyranosyl)-2-nitropyridine], in the data set with IgE, the absorbance change came to 0.298 and the “fold higher absorbance than o-nitrophenyl-β-galactoside” value is given as “approximately 1.7 fold”.
As to `Cc1cc(=O)oc2c([N+](=O)[O-])c(O[C@H]3O[C@H](CO)[C@@H](O[C@H]4O[C@H](CO)[C@@H](O[C@H]5O[C@H](CO)[C@@H](O)[C@H](O)[C@H]5O)[C@H](O)[C@H]4O)[C@H](O)[C@H]3O)ccc12` [compound S10, 2H-7-O-(α-D-Maltotriosyl)-4-methyl-8-nitrobenzopyran-2-one], in the data set on α-amylase, the “absorbance change, fold greater than with the nitrophenyl derivative” value turned out to be 32 fold and the “delta A/min” value is on record as 0,635 A/min.
For `Cc1cc(=O)oc2c([N+](=O)[O-])c(O[C@H]3O[C@H](CO)[C@@H](O[C@H]4O[C@H](CO)[C@@H](O[C@H]5O[C@H](CO)[C@@H](O[C@H]6O[C@H](CO)[C@@H](O)[C@H](O)[C@H]6O)[C@H](O)[C@H]5O)[C@H](O)[C@H]4O)[C@H](O)[C@H]3O)ccc12` [compound S11, 2H-7-O-(α-D-Maltotetraosyl)-4-methyl-8-nitrobenzopyran-2-one], in that order: “approximately 14 fold” and 0,134 A/min.
On to `O=[N+]([O-])c1ncccc1O[C@H]1O[C@H](CO)[C@@H](O[C@H]2O[C@H](CO)[C@@H](O[C@H]3O[C@H](CO)[C@@H](O)[C@H](O)[C@H]3O)[C@H](O)[C@H]2O)[C@H](O)[C@H]1O` [compound S12, 3-O-(α-D-Maltotriosyl)-2-nitropyridine], for which the “absorbance changes in comparison with the state of the art” value with α-amylase (without auxiliary enzyme, immediately linear kinetics) was “sufficiently high absorbance changes”.
As for `Cc1cc(=O)oc2c([N+](=O)[O-])c(OP(=O)(O)O)ccc12` [compound S13, 2H-7-O-(Phosphoryl)-4-methyl-8-nitrobenzopyran-2-one], the “absorbance change, fold greater than for nitrophenyl phosphate” value at acid phosphatase is “about 13 fold”. Moreover, at acid phosphatase (relative to p-nitrophenyl phosphate), the “Ratio of the absorbance changes” value was 13. Also, on acid phosphatase (seminal plasma diluted 1:101, pH 4.8, 405 or 365 nm), the “delta A/min” value was 0,0975 A/min.
On to `O=[N+]([O-])c1ccccc1O[C@H]1O[C@H](CO)[C@@H](O[C@H]2O[C@H](CO)[C@@H](O[C@H]3O[C@H](CO)[C@@H](O)[C@H](O)[C@H]3O)[C@H](O)[C@H]2O)[C@H](O)[C@H]1O` [nitrophenyl derivative, o-nitrophenyl α-maltotrioside], for which the “delta A/min” value in the data set on α-amylase is on record as 0,020 A/min.
As for `O=[N+]([O-])c1ccccc1O` [o-Nitrophenol], in the data set “pKa of the dyes A-OH”, the pKa was 7.08. For the same compound, the Extinction coefficient in data set [1] (pH 4.0, 405 nm) is 0.47 1·mol^-1·cm^-1·10^3; in data set [1] (pH 5.0, 405 nm), 0.48 1·mol^-1·cm^-1·10^3; in data set [1] (pH 6.0, 405 nm), 0.75 1·mol^-1·cm^-1·10^3; in data set [1] (pH 7.1, 405 nm), 2.34 1·mol^-1·cm^-1·10^3; in data set [1] (pH 10, 405 nm) it was 4.01 1·mol^-1·cm^-1·10^3.
The compound `O=[N+]([O-])c1ccccc1O[C@@H]1O[C@H](CO)[C@H](O)[C@H](O)[C@H]1O` [o-Nitrophenyl galactoside, o-nitrophenyl-β-galactoside] came in with an absorbance change with IgE of 0.176.
For `O=[N+]([O-])c1ccc(O)cc1` [p-Nitrophenol], the Extinction coefficient in data set [1] (pH 4.0, 405 nm) is 0.20 1·mol^-1·cm^-1·10^3; in data set [1] (pH 5.0, 405 nm), 0.40 1·mol^-1·cm^-1·10^3; in data set [1] (pH 6.0, 405 nm) it was 1.50 1·mol^-1·cm^-1·10^3; in data set [1] (pH 7.1, 405 nm), 9.7 1·mol^-1·cm^-1·10^3; in data set [1] (pH 10, 405 nm), 18.30 1·mol^-1·cm^-1·10^3.
In the case of `O=[N+]([O-])c1ccc(O[C@@H]2O[C@H](CO)[C@@H](O)[C@H](O)[C@H]2O)cc1` [p-nitrophenyl derivative, p-nitrophenyl β-D-glucopyranoside], the “Absorbance Difference/min delta A/min” value with β-glucosidase is 0,0476 A/min.
